Assay results from PubChem BioAssay (NCI).
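The compound was tested at five concentrations on cells cultured in 96-well plates, with a 48-hour exposure period. TGI is the concentration that stops growth completely.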

System: P388 leukemia
Test: NCI tumour cell line growth inhibition, 48 h

Structure (SMILES) | TGI [µM]
O=NN(CCCl)C(=O)NC1CCCCC1 | 34.4
Nc1nc(=S)c2[nH]cnc2[nH]1 | 6.43
